Drawing on patent US9555039B2, “Piperidine derivatives and compositions for the inhibition of nicotinamide phosphoribosyltransferase (NAMPT)” (Forma TM, LLC., priority 2011, dated 2017), this text covers IC50 for 27 molecules.

T1 sequence (P43490 whole entry): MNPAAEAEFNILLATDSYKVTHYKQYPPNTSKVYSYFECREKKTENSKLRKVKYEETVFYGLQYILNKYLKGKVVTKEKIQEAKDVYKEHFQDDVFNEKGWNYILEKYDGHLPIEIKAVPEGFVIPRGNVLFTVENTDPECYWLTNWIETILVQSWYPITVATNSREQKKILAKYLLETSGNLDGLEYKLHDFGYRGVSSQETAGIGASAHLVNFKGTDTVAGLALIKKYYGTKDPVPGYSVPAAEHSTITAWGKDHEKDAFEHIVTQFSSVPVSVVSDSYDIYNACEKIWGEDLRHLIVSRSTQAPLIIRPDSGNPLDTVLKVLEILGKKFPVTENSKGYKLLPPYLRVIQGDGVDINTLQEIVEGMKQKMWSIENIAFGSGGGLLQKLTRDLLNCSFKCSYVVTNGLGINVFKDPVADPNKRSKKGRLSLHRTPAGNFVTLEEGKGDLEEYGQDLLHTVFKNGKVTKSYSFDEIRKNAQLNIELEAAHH

The test system of the first experiment is A2780 cells. In words: In-vitro cell proliferation assay (SRB, 72 hours). The note with it: Homo sapiens, sulforhodamine B (SRB) assay. Format: cell-based. As to the method: In-Vitro Cell Proliferation Assay
After overnight incubation at 37° C. and 5% CO2, the compound titrations were performed in a separate dilution plate by serially diluting the compounds in DMSO to make a 1000× stock. The compounds were then further diluted to 10× final concentration in culture media, whereupon 20 μL of each dilution was added to the plated cells with controls (e.g. DMSO and blank) to make a final volume of 200 μL. The final DMSO concentration in each well was 0.1%. The plates were then incubated for 72 hours at 37° C. in a 5% CO2 incubator. The number of viable cells was then assessed using sulforhodamine B (SRB) assay. Cells were fixed at 4° C. for 1 hour with the addition of 50 μL 30% trichloroacetic acid (TCA) to make a final concentration of 6% TCA. The plates were washed four times with H2O and allowed to dry for at least 1 hour, whereupon 100 μL of a 4% SRB in 1% acetic acid solution was added to each well and incubated at room temperature for at least 30 minutes. The plates were then washed three times with 1% acetic acid, dried, and treated with 100 μL of 10 mM Tris-Base solution. The plates were then read in a microplate reader at an absorbance of 570 nm. Background was generated on a separate plate with media only.
Method for Determining % Inhibition
First, the signals from the background plate are averaged, then the background was subtracted from the test plates.
wherein x denotes the average signal of the compound-treated cells and y denotes the average signal of the DMSO-treated cells.
wherein X denotes the compound concentration 1, Y denotes the compound concentration 2, XX denotes the % inhibition at compound concentration 1 (X), and YY denotes the % inhibition at compound concentration 2 (Y).
A general note: In SRB staining, fixed cells bind dye roughly in proportion to their protein.
The term IC50 denotes the concentration needed to halve the response being measured. In turn, `O=C(NCCc1ccc(OCc2ccccc2)cc1)c1cc2cnccc2[nH]1` [N-(4-(benzyloxy)phenethyl)-1H-pyrrolo[3,2-c]pyridine-2-carboxamide] showed an IC50 of 2000 nM.
Turning to `Cc1cccc(C(=O)N2CCC(CCCCNC(=O)c3ccc4nccn4c3)CC2)c1F` [N-(4-{1-[(2-fluoro-3-methylphenyl)carbonyl]piperidin-4-yl}butyl)imidazo[1,2-a]pyridine-6-carboxamide], the IC50 worked out at 12.7 nM.
`O=C(NCCCCC1CCN(C(=O)c2ccc(OC(F)(F)F)cc2)CC1)c1cc2ccncc2s1` [N-[4-(1-{[4-(trifluoromethoxy)phenyl]carbonyl}piperidin-4-yl)butyl]thieno[2,3-c]pyridine-2-carboxamide] returned an IC50 of 100 to 1000 nM.
With `COc1cccc(C(=O)N2CCC(CCCCNC(=O)c3cc4cnccc4[nH]3)CC2)c1` [N-(4-{1-[(3-methoxyphenyl)carbonyl]piperidin-4-yl}butyl)-1H-pyrrolo[3,2-c]pyridine-2-carboxamide], the IC50 is 3.8 nM.
Still for that read-out and setting: the same measure for `COc1cccc(C(=O)N2CCC(CCCCNC(=O)c3ccc4nccn4c3)CC2)c1` [N-(4-{1-[(3-methoxyphenyl)carbonyl]piperidin-4-yl}butyl)imidazo[1,2-a]pyridine-6-carboxamide]: 6.6 nM; for `O=C(NCCCCC1CCN(C(=O)c2ccc(F)cc2)CC1)c1cc2cnccc2[nH]1` [N-(4-{1-[(4-fluorophenyl)carbonyl]piperidin-4-yl}butyl)-1H-pyrrolo[3,2-c]pyridine-2-carboxamide]: 14.7 nM; for `Cc1cccc(C(=O)N2CCC(CCCCNC(=O)c3cc4ccncc4s3)CC2)c1F` [N-(4-{1-[(2-fluoro-3-methylphenyl)carbonyl]piperidin-4-yl}butyl)thieno[2,3-c]pyridine-2-carboxamide]: 12.6 nM.
Consider `O=C(NCCCCC1CCN(C(=O)c2cccc(Cl)c2)CC1)c1cc2cnccc2[nH]1` [N-(4-{1-[(3-chlorophenyl)carbonyl]piperidin-4-yl}butyl)-1H-pyrrolo[3,2-c]pyridine-2-carboxamide], for which the IC50 stood at 11.9 nM.
Take `O=C(NCCCCC1CCN(C(=O)c2cc(F)ccc2F)CC1)c1cc2ccncc2s1` [N-(4-{1-[(2,5-difluorophenyl)carbonyl]piperidin-4-yl}butyl)thieno[2,3-c]pyridine-2-carboxamide]: half-maximal inhibition (IC50) required 1.6 nM.
Same read-out and setting: then `COc1ccc(Cl)cc1C(=O)N1CCC(CCCCNC(=O)c2cc3cnccc3[nH]2)CC1` [N-(4-{1-[(5-chloro-2-methoxyphenyl)carbonyl]piperidin-4-yl}butyl)-1H-pyrrolo[3,2-c]pyridine-2-carboxamide], with 3.3 nM.
Take `O=C(NCCCCC1CCN(C(=O)c2ccc(-n3cccn3)cc2)CC1)c1ccc2nccn2c1` [N-[4-(1-{[4-(1H-pyrazol-1-yl)phenyl]carbonyl}piperidin-4-yl)butyl]imidazo[1,2-a]pyridine-6-carboxamide]: the midpoint of inhibition, the IC50, lay at 67.1 nM.
The same measure, in the same setting: the same measure for `COc1cc(OC)cc(C(=O)N2CCC(CCCCNC(=O)c3ccc4nccn4c3)CC2)c1` [N-(4-{1-[(3,5-dimethoxyphenyl)carbonyl]piperidin-4-yl}butyl)imidazo[1,2-a]pyridine-6-carboxamide]: 2.8 nM.

Another experiment concerns the target T1, Recombinant His-tagged NAMPT (Homo sapiens, UniProt P43490).
T1 construct: His; host or cells: E. coli
In words: Biochemical inhibition assay: NAMPT enzymatic reaction, NMN quantified by mass spectrometry. To be noted: 33 nM NAMPT, 1 μM NAM, 100 μM PRPP, 2.5 mM ATP, 30 minutes at room temperature; read-out: Biochem IC50. The procedure:
Biochemical Inhibition Assay
NAMPT Protein Purification
Recombinant His-tagged NAMPT was produced in E. coli cells, purified over a Ni column, and further purified over a size-exclusion column by XTAL Biostructures.
The NAMPT Enzymatic Reaction
The NAMPT enzymatic reactions were carried out in Buffer A (50 mM Hepes pH 7.5, 50 mM NaCl, 5 mM MgCl2, and 1 mM THP) in 96-well V-bottom plates. The compound titrations were performed in a separate dilution plate by serially diluting the compounds in DMSO to make a 100× stock. […] The compound and enzyme mix was incubated for 15 minutes at room temperature, then 10 μL of 10× substrate and co-factors in Buffer A were added to the test well to make a final concentration of 1 μM NAM, 100 μM 5-Phospho-D-ribose 1-diphosphate (PRPP), and 2.5 mM Adenosine 5′-triphosphate (ATP). The reaction was allowed to proceed for 30 minutes at room temperature, then was quenched with the addition of 11 μL of a solution of formic acid and L-Cystathionine to make a final concentration of 1% formic acid and 10 μM L-Cystathionine. Background and signal strength was determined by addition (or non-addition) of a serial dilution of NMN to a pre-quenched enzyme and cofactor mix.
A mass spectrometry-based assay was used to measure the Nampt reaction product (NMN) and the internal control (L-Cystathionine). NMN and L-Cystathionine were detected using the services of Biocius Lifesciences with the RapidFire system. In short, the NMN and L-Cystathionine are bound to a graphitic carbon cartridge in 0.1% formic acid, eluted in 30% acetonitrile buffer, and injected into a Sciex 4000 mass spectrometer. The components of the sample were ionized with electrospray ionization and the positive ions were detected. […] The fragments are quantified and the analyzed by the following method.
First the NMN signal is normalized to the L-Cystathionine signal by dividing the NMN signal by the L-Cystathionine signal for each well. The signal from the background wells are averaged and subtracted from the test plates.
Wherein x denotes the average signal of the compound treated wells and y denotes the average signal of the DMSO treated wells.
IC50s are Determined Using Excel and this Formula.
Wherein X denotes the compound concentration 1, Y denotes the compound concentration 2, XX denotes the % inhibition at compound concentration 1 (X), and YY denotes the % inhibition at compound concentration 2 (Y).
`Cc1cccc(C(=O)N2CCC(CCCCNC(=O)c3ccc4nccn4c3)CC2)c1F` [N-(4-{1-[(2-fluoro-3-methylphenyl)carbonyl]piperidin-4-yl}butyl)imidazo[1,2-a]pyridine-6-carboxamide]: the half-maximal inhibitory concentration (IC50) stood at 22.6 nM.
The same measure, in the same setting: the same measure for `O=C(NCCCCC1CCN(C(=O)c2ccc(OC(F)(F)F)cc2)CC1)c1cc2ccncc2s1` [N-[4-(1-{[4-(trifluoromethoxy)phenyl]carbonyl}piperidin-4-yl)butyl]thieno[2,3-c]pyridine-2-carboxamide]: 166 nM.
Still for that read-out and setting: then `COCc1ccc(C(=O)N2CCC(CCCCNC(=O)c3cc4ccncc4s3)CC2)nc1` [N-[4-(1-{[5-(methoxymethyl)pyridin-2-yl]carbonyl}piperidin-4-yl)butyl]thieno[2,3-c]pyridine-2-carboxamide], with 18.3 nM.
As to `O=C(NCCCCC1CCN(C(=O)c2cc3cc(F)ccc3[nH]2)CC1)c1ccc2nccn2c1` [N-(4-{1-[(5-fluoro-1H-indol-2-yl)carbonyl]piperidin-4-yl}butyl)imidazo[1,2-a]pyridine-6-carboxamide], the IC50 turned out to be 71.3 nM.
The same measure, in the same setting: the same measure for `O=C(NCCCCC1CN(C(=O)c2ccccc2)C1)c1cc2cnccc2[nH]1` [N-[4-(1-benzoylazetidin-3-yl)butyl]-1H-pyrrolo[3,2-c]pyridine-2-carboxamide]: 23.2 nM; for `Cc1ccc(C(=O)N2CCC(CCCCNC(=O)c3ccc4nccn4c3)CC2)cc1F` [N-(4-{1-[(3-fluoro-4-methylphenyl)carbonyl]piperidin-4-yl}butyl)imidazo[1,2-a]pyridine-6-carboxamide]: 39.4 nM.
As to `COc1ccc(F)cc1S(=O)(=O)N1CCC(CCCCNC(=O)c2cc3cnccc3[nH]2)CC1` [N-(4-{1-[(5-fluoro-2-methoxybenzene)sulfonyl]piperidin-4-yl}butyl)-1H-pyrrolo[3,2-c]pyridine-2-carboxamide], the IC50 was determined as 23.2 nM.
Regarding `O=C(NCCCCC1CCN(C(=O)c2ccccc2Cl)CC1)c1ccc2nccn2c1` [N-(4-{1-[(2-chlorophenyl)carbonyl]piperidin-4-yl}butyl)imidazo[1,2-a]pyridine-6-carboxamide], the IC50 is 5 nM.
The same measure, in the same setting: the same measure for `Cc1oncc1S(=O)(=O)N1CCC(CCCCNC(=O)c2cc3cnccc3[nH]2)CC1` [N-{4-[1-(5-methyl-1,2-oxazole-4-sulfonyl)piperidin-4-yl]butyl}-1H-pyrrolo[3,2-c]pyridine-2-carboxamide]: 36.7 nM; for `O=C(NCCCCC1CCN(C(=O)c2ccc3nccn3c2)CC1)c1ccc2nccn2c1` [N-{4-[1-({imidazo[1,2-a]pyridin-6-yl}carbonyl)piperidin-4-yl]butyl}imidazo[1,2-a]pyridine-6-carboxamide]: 8.5 nM; for `CC(C)c1ncoc1C(=O)N1CCC(CCCCNC(=O)c2cc3ccncc3s2)CC1` [N-[4-(1-{[4-(propan-2-yl)-1,3-oxazol-5-yl]carbonyl}piperidin-4-yl)butyl]thieno[2,3-c]pyridine-2-carboxamide]: 7.4 nM.
On the same count and under the same terms, then `O=C(NCCCCC1CCN(C(=O)c2csc(-c3ccccc3)n2)CC1)c1ccc2nccn2c1` [N-(4-{1-[(2-phenyl-1,3-thiazol-4-yl)carbonyl]piperidin-4-yl}butyl)imidazo[1,2-a]pyridine-6-carboxamide], with 52.3 nM; and `O=C(NCCCCC1CCN(C(=O)c2ccccc2Cl)CC1)c1cc2cnccc2[nH]1` [N-(4-{1-[(2-chlorophenyl)carbonyl]piperidin-4-yl}butyl)-1H-pyrrolo[3,2-c]pyridine-2-carboxamide], with 15.8 nM; and `O=C(NCCCCC1CCN(C(=O)c2cc(F)ccc2F)CC1)c1cc2cnccc2[nH]1` [N-(4-{1-[(2,5-difluorophenyl)carbonyl]piperidin-4-yl}butyl)-1H-pyrrolo[3,2-c]pyridine-2-carboxamide], with 10.3 nM.
Same read-out and setting: then `O=C(NCCCCC1CCN(C(=O)c2ccc(C(F)(F)F)cn2)CC1)c1ccc2nccn2c1` [N-[4-(1-{[5-(trifluoromethyl)pyridin-2-yl]carbonyl}piperidin-4-yl)butyl]imidazo[1,2-a]pyridine-6-carboxamide], with 82.3 nM; and `O=C(NCc1ccc(S(=O)(=O)c2ccc(C(=O)N3CCCC3)cc2)cc1)c1cnc2[nH]ncc2c1` [N-{[4-({4-[(pyrrolidin-1-yl)carbonyl]benzene}sulfonyl)phenyl]methyl}-1H-pyrazolo[3,4-b]pyridine-5-carboxamide], with 15.8 nM; and `O=C(NCc1ccc(S(=O)(=O)c2ccc(C(=O)N3CCCC3)cc2)cc1)c1cc2ccncc2s1` [N-{[4-({4-[(pyrrolidin-1-yl)carbonyl]benzene}sulfonyl)phenyl]methyl}thieno[2,3-c]pyridine-2-carboxamide], with 3.7 nM.
